Laboratory results as given in patent US20070191336A1 (priority 2003, published 2007).

target: T1, phospho p-38 alpha kinase (Homo sapiens, UniProt Q16539); assay: P-38 alpha kinase assay (spectrophotometric, pyruvate kinase/lactate dehydrogenase coupled); type: biochemical; settings: Table 3; rates from […] to 2 h time frame
T1 construct: purchased Panvera
Description: In this assay, the oxidation of NADH was continuously measured spectrophometrically. […] The reaction was initiated by adding ATP. The absorption at 340 nm was monitored continuously for up to 4 hours at 30° C. on Polarstar Optima plate reader (BMG). The kinase activity (reaction rate) was calculated from the slope at the time frame from 1.5 h to 2 h.
For inhibition determinations, test compounds were incubated with the reaction mixture for ˜5 min before adding ATP to start the reaction. […] IC50 values were calculated from a series of % inhibition values determined at a range of concentrations of each inhibitor using Prism to process the data and fit inhibition curves. Generally, the rates obtained at the time frame of 1.5 h to 2 h were used for these calculations.

T1 sequence (Q16539 whole entry): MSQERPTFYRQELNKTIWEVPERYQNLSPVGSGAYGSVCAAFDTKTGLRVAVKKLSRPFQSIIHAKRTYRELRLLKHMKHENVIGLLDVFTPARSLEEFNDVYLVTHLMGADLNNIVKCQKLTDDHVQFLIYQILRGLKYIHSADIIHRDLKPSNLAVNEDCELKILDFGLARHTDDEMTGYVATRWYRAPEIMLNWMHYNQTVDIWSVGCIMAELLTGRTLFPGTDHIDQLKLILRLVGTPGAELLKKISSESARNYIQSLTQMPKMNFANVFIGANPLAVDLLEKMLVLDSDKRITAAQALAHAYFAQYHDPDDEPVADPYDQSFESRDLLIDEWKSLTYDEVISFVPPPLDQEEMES

IC50 [nM]	Compound
52	COC(=O)COc1ccc(-n2nc(C(C)(C)C)cc2NC(=O)Nc2cccc3ccccc23)cc1 [Example 519, 1-(3-t-butyl-1-(4-(carbomethoxymethyl)oxyphenyl)-1H-pyrazol-5-yl)-3-(naphthalen-1-yl)urea]
340	CC(C)(C)c1cc(NC(=O)Nc2ccc(Cl)cc2)n(-c2cccc(CNC(=O)N3CCCC3)c2)n1 [Example 490, 1-(3-t-butyl-1-{3-[(pyrrolidine-1-carboxamido)methyl]phenyl}-1H-pyrazol-5-yl)-3-(4-chlorophenyl)urea]
40	O=C(Nc1cccc(Br)c1)Nc1cc(-c2ccccc2)nn1-c1cccc(CO)c1 [Example 456, 1-(3-bromophenyl)-3-{1-[3-(hydroxymethyl)phenyl]-3-phenyl-1H-pyrazol-5-yl}urea]
1000	COc1cccc(NC(=O)Nc2cc(-c3ccccc3)nn2-c2cccc(CO)c2)c1 [Example 458, 1-{3-phenyl-1-[3-(hydroxymethyl)phenyl]-1H-pyrazol-5-yl}-3-(3-methoxyphenyl)urea]
10	CCOC(=O)CCc1cccc(-n2nc(C(C)(C)C)cc2NC(=O)Nc2cccc(Cl)c2Cl)c1 [Example 364, 3-(3-{3-t-butyl-5-[3-(2,3-dichlorophenyl)ureido]-1H-pyrazol-1-yl}phenyl)propionic acid ethyl ester]
1650	COc1cccc(NC(=O)Nc2cc(C(C)(C)C)nn2-c2cccc(CN)c2)c1 [Example 388, 1-{1-[3-(aminomethyl)phenyl]-3-t-butyl-1H-pyrazol-5-yl}-3-(3-methoxy-phenyl)urea]

Further lines, the molecule ahead of its results:

Compound	IC50 [nM]
COc1cccc(-n2nc(-c3ccccc3)cc2NC(=O)Nc2cccc(Br)c2)c1 [Example 332]	50
COc1cccc(-n2nc(C(C)(C)C)cc2NC(=O)Nc2ccsc2)c1 [Example 327, 1-(3-t-butyl-1-(3-methoxyphenyl)-1H-pyrazol-5-yl)-3-(thiophen-3-yl)urea]	810
COc1cccc(NC(=O)Nc2cc(-c3ccccc3)nn2-c2cccc(OC)c2)c1 [Example 334, 1-(3-methoxyphenyl)-3-(1-(3-methoxyphenyl)-3-phenyl-1H-pyrazol-5-yl)urea]	2200
COc1cccc(-n2nc(C(C)(C)C)cc2NC(=O)Nc2ccc(C#N)cc2)c1 [Example 322, 1-(3-t-butyl-1-(3-methoxyphenyl)-1H-pyrazol-5-yl)-3-(4-cyanophenyl)urea]	2020

same assay, conditions: read-out: % Inhibition @ concentration, Table 3; at 0.1 uM

Compound	inhibition at 0.1 µM [%]
COc1ccc(-n2nc(C(C)(C)C)cc2NC(=O)Nc2ccccc2F)cc1 [Example 346, 1-[3-t-butyl-1-(4-methoxyphenyl)-1H-pyrazol-5-yl]-3-(2-fluorophenyl)urea]	19
COc1ccc(-n2nc(C(C)(C)C)cc2NC(=O)Nc2cccc(OC)c2)cc1 [Example 348, 1-[3-t-butyl-1-(4-methoxyphenyl)-1H-pyrazol-5-yl]-3-(3-methoxy-phenyl)urea]	17

same assay, conditions: read-out: % Inhibition @ concentration, Table 3; at 1 uM

Compound	inhibition at 1 µM [%]
Cc1cc(NC(=O)Nc2cccc(Cl)c2Cl)n(-c2ccc(CO)cc2)n1 [Example 450, 1-(2,3-dichlorophenyl)-3-{1-[4-(hydroxymethyl)phenyl]-3-methyl-1H pyrazol-5-yl)urea]	89
COc1ccc(-n2nc(C(C)(C)C)cc2NC(=O)Nc2ccccc2F)cc1 [Example 346, 1-[3-t-butyl-1-(4-methoxyphenyl)-1H-pyrazol-5-yl]-3-(2-fluorophenyl)urea]	63
COc1ccc(-n2nc(C(C)(C)C)cc2NC(=O)Nc2cccc(OC)c2)cc1 [Example 348, 1-[3-t-butyl-1-(4-methoxyphenyl)-1H-pyrazol-5-yl]-3-(3-methoxy-phenyl)urea]	47
Cc1cc(NC(=O)Nc2cccc3ccccc23)n(-c2ccc(C(O)C(F)(F)F)cc2)n1 (stereo not shown) [Example 451, 1-{3-methyl-1-[4-(2,2,2-trifluoro-1-hydroxyethyl)phenyl]-1H-pyrazol-5-yl}-3-(naphthalen-1-yl)urea]	3

same assay, conditions: read-out: % Inhibition @ concentration, Table 3; at 10 uM

Compound	inhibition at 10 µM [%]
Cc1cc(NC(=O)Nc2cccc(Cl)c2Cl)n(-c2ccc(CO)cc2)n1 [Example 450, 1-(2,3-dichlorophenyl)-3-{1-[4-(hydroxymethyl)phenyl]-3-methyl-1H pyrazol-5-yl)urea]	192
O=C(O)CCc1cccc(-n2nc(C(F)(F)F)cc2NC(=O)Nc2ccc(Cl)cc2)c1 [Example 530, 3-(3-(5-(3-(4-chlorophenyl)ureido)-3-(trifluoromethyl)-1H-pyrazol-1-yl)phenyl)propanoic acid]	83
COc1cccc(-n2nc(C)cc2NC(=O)Nc2cccc(Cl)c2)c1 [Example 336, 1-(3-chlorophenyl)-3-(1-(3-methoxyphenyl)-3-methyl-1H-pyrazol-5-yl)urea]	27
